In brackets after ≈: the same amount, converted by molar mass.
Assays:
[1] = biological target: Aldo-keto reductase family 1 member B1 (Homo sapiens, UniProt P15121); assay: Inhibition of cataracted human eye lens aldose reductase
[2] = test system: Radical scavenging activity; assay: Antioxidant activity assessed as DPPH radical scavenging activity after 20 mins; assay type: functional

Row | Structure (SMILES) | IC50 [1] | IC50 [2]
1 | O=C(O)/C=C/c1ccccc1 [CINNAMIC ACID] | 460 µM | 96.7 µg/mL (≈ 653 µM)
2 | O=C(O)/C=C/c1ccc(O)cc1 [COUMARIC ACID] | 989 µM | 112.01 µg/mL (≈ 682 µM)
3 | COc1cc(/C=C/C(=O)O)ccc1O [FERULATE] | – | 189.1 µg/mL (≈ 974 µM)
4 | O=C(O)c1cc(O)c(O)c(O)c1 [GALLIC ACID] | 572 µM | 26.9 µg/mL (≈ 158 µM)
5 | O=C(O)c1ccc(O)cc1 [PARABEN] | – | 183.7 µg/mL (≈ 1330 µM)
6 | O=C(O)c1ccc(O)c(O)c1 [PROTOCATECHUIC ACID] | 277 µM | 77.63 µg/mL (≈ 504 µM)
7 | O=c1c(O)c(-c2ccc(O)c(O)c2)oc2cc(O)cc(O)c12 [QUERCETIN] | – | 56.8 µg/mL (≈ 188 µM)
8 | COc1cc(C(=O)O)cc(OC)c1O [SYRINGIC ACID] | 868 µM | 155.6 µg/mL (≈ 785 µM)
9 | COc1cc(C(=O)O)ccc1O [VANILLIC ACID] | – | 176.5 µg/mL (≈ 1050 µM)

Reference: ChEMBL document CHEMBL1151698, “Inhibition of aldose reductase from cataracted eye lenses by finger millet (Eleusine coracana) polyphenols” (Bioorg Med Chem, 2008)
